{
  "source": "patent US6482851B1",
  "about": "“Synthesis of dysidiolide and uses thereof” (Sloan-Kettering Institute for Cancer Research, priority 1998, dated 2002)",
  "key": {"Cdc2": {"test_system": "Cdc2", "test": "Cdc2 kinase activity on immunoprecipitates from treated MCF7 cells", "assay_type": "cell-based, human", "conditions": "50 μM, 24 hr", "experimental": "(§1) Effect of a 24 hr treatment with 50 μM dysidiolide on the kinase activity of Cdk4, Cdk2 and Cdc2. Cdk were immunoprecipitated from MCF7 cell lysates obtained from cultures treated or not with dysidiolide for 24 hr. Histone H1 was used as substrate for Cdk2 and Cdc2, whereas GST-Rb was the substrate for Cdk4.\n(§2) To further characterize the effects of dysidiolide on cell cycle control, experiments were conducted at the molecular level. As Cdc25s (A, B and C) are positive regulators of cyclin-dependent kinases (Cdk) (reviewed in Draetta and Eckstein, BBA 1332: M53-M63, 1997) inhibition of Cdc25 is expected to result in inhibition of Cdk activity. MCF7 cells were treated with 2 or 10 μM dysidiolide or with DMSO (controls) for 2 or 4 hr. Cell extracts were used to measure the steady-state levels of Cdc25 A and C, and Cdk activity. […] However, a decrease in the levels of Cdc25 C (but not on A) was clearly noticeable (FIG. 9B). In the next experiment MCF7 cells were treated for 24 hr with 50 μM dysidiolide or with DMSO (control) for 24 hr. […] On the other hand, at these more stringent conditions, inhibition of Cdk2, Cdk4 and Cdc2 protein kinase activities was observed (FIG. 10A and FIG. 10B)."}, "Cdk4": {"test_system": "Cdk4", "test": "Cdk4 kinase activity on immunoprecipitates from treated MCF7 cells", "assay_type": "cell-based, human", "conditions": "50 μM, 24 hr", "experimental": "as §1, §2"}, "Cdk2": {"test_system": "Cdk2", "test": "Cdk2 kinase activity on immunoprecipitates from treated MCF7 cells", "assay_type": "cell-based, human", "experimental": "(§3) Effect of dysidiolide on the activity of Cdk2 and on the steady-state levels of Cdc25A and Cdc25C. MCF7 cells were treated for 2 or 4 hr with 0, 2 or 10 μM dysidiolide. A) The kinase activity of Cdk2 was assayed on immunoprecipitates using histone H1 as exogenous substrate. B) The steady-state levels of Cdc25 A and C were analyzed in total cell lysates with specific antibodies (Santa Cruz Biotechnology's sc097 and sc327 antibodies were used for detection of Cdc25 A and C, respectively).\nas §1\nTo further characterize the effects of dysidiolide on cell cycle control, experiments were conducted at the molecular level. As Cdc25s (A, B and C) are positive regulators of cyclin-dependent kinases (Cdk) (reviewed in Draetta and Eckstein, BBA 1332: M53-M63, 1997) inhibition of Cdc25 is expected to result in inhibition of Cdk activity. MCF7 cells were treated with 2 or 10 μM dysidiolide or with DMSO (controls) for 2 or 4 hr. Cell extracts were used to measure the steady-state levels of Cdc25 A and C, and Cdk activity. […]"}, "MX1 tumor xenografts": {"test_system": "MX1 tumor xenografts", "test": "MX1 tumor xenografts in nude mice", "assay_type": "in vivo", "conditions": "Sixty three mg/kg", "experimental": "Dysidiolide inhibited the growth of MX1 tumor xenografts in nude mice. Sixty three mg/kg dysidiolide inhibited (A) tumor growth by 70% while (B) animal weight (and indication of overall toxicity) remained higher than 90% of controls.\nTherapeutic Effects of Dysidiolide and Taxol in Nude Mice bearing MX-1. MX-1 cell 50 μg was implanted s.c. on day 0. Every other day i.v. treatments were given on day 3,5,7,9 and 11. The average tumor volume of control group on day 3, 7, 9, 11 and 13 were 62, 75, 113, 155 and 264 mm^3, respectively. Solvents: Dysidiolide [20-40 μl DMSO+100 μl (Cremophor: EtOH=1:1)+Saline] Taxol [Clinical use (Cremophor+EtOH=1:1)+Saline]."}, "[1]": {"test_system": "PC3, DU145 and MCF7 cells", "test": "cell cycle distribution by DNA content histograms (FACS)", "assay_type": "cell-based, human", "experimental": "Cells with 2n to 4n DNA content were distributed on a DNA histogram and estimations for the percentages of cells in G1(2n), S(2n<X<4N) and G2/M (4n) were calculated using Becton-Dickinson FACS analysis software.\n(§4) A 20 mM stock solution of dysidiolide was prepared in dimethylsulfoxide (DMSO) and a pilot experiment was carried out to measure the effects of the drug on the viability (Trypan blue exclusion) and flow cytometric parameters of four human cancer cell lines: the prostate lines TSU-Pr1, PC3 and DU145, and the breast line, MCF7. Cultures were treated with 0, 2, 10 and 50 μM dysidiolide for 24 hr. Dysidiolide was cytotoxic to the four lines as evidenced by the loss of Trypan blue exclusion capability and by the appearance of sub-G1 fraction on flow cytometric (FACS) analysis (FIGS. 3 and 4A-D). […] (At 50 μM dysidiolide, the level of cell death was too high in TSU-Pr1 cells to fit a valid histogram (FIG. 5A)). These cell cycle changes are consistent with arrest prior to completion of the replicative (S) phase, or with cell death occurring preferentially in cells with a 4n DNA content (G2/M population)."}, "[2]": {"test_system": "TSU-Pr1, PC3 and DU145 human prostrate cancer cells", "test": "apoptosis by FACS detection of fragmented DNA", "assay_type": "cell-based", "conditions": "24 hours", "experimental": "(§5) Cells containing fragmented DNA content were detected as the M1 (subG1) region on DNA content plots.\nEffects of dysidiolide at the cellular level. Dysidiolide was cytotoxic to several human tumor cell lines. […] (A) Human tumor cells were treated for 24 hours in the presence of various concentrations of dysidiolide or DMSO vehicle. Cells were analyzed by FACS and the percentage of cells bearing less than the 2 n DNA complement was determined. (B) Immunofluorescence micrographs of TSU-Pr1 human prostrate cancer cells untreated or treated for 6 hours with 2-50 μM dysidiolide."}, "[3]": {"test_system": "p21, p27, cyclin D1 and cyclin E", "test": "steady-state levels of other cell cycle regulators in MCF7 cells", "assay_type": "cell-based, human", "conditions": "50 μM, 24 hr", "experimental": "(§6) (A) Effect of 50 μM dysidiolide on the steady-state levels of Cdc25 A and C, and of other cell cycle regulators in MCF7 cells after a 24 hr treatment."}, "Cdc25 C": {"test_system": "Cdc25 C", "test": "steady-state levels of Cdc25 C in MCF7 cell lysates", "assay_type": "cell-based, human", "experimental": "as §3, §6\nTo further characterize the effects of dysidiolide on cell cycle control, experiments were conducted at the molecular level. As Cdc25s (A, B and C) are positive regulators of cyclin-dependent kinases (Cdk) (reviewed in Draetta and Eckstein, BBA 1332: M53-M63, 1997) inhibition of Cdc25 is expected to result in inhibition of Cdk activity. MCF7 cells were treated with 2 or 10 μM dysidiolide or with DMSO (controls) for 2 or 4 hr. Cell extracts were used to measure the steady-state levels of Cdc25 A and C, and Cdk activity. […] However, a decrease in the levels of Cdc25 C (but not on A) was clearly noticeable (FIG. 9B). In the next experiment MCF7 cells were treated for 24 hr with 50 μM dysidiolide or with DMSO (control) for 24 hr. […]"}, "TSU-Pr1 cells": {"test_system": "TSU-Pr1 cells", "test": "BrdU pulse-label FACS of TSU-Pr1 cells", "assay_type": "cell-based, human", "conditions": "3.33 μM, 24 hours", "experimental": "TSU-Pr1 cells were treated for 24 hours with either DMSO or 3.33 μM dysidiolide. Cells were pulse-labeled for 30 min with bromodeoxyuridine (BrdU) and analyzed by FACS. The R@ window contains BRDU-positive, S-phase cells. Consistent with the proposed inhibitory effect of dysidiolide on the positive cell cycle regulator Cdc25. the drug inhibited the activity of cyclin-dependent kinases (Cdk). Cdk4, 6 and 2 were immunoprecipitated from DMSO- or drug-treated TSU-Pr1 cell cultures. Activity was examined in vitro kinase assays. The activity of the three Cdks was inhibited in drug-treated cells, as early as 3 hours in drug."}, "[4]": {"test_system": "TSU-Pr1, PC3, DU145 and MCF7 human cancer cell lines", "test": "viability (Trypan blue exclusion) and FACS sub-G1 of four human cancer cell lines", "assay_type": "cell-based", "experimental": "Effect of dysidiolide on the viability of the human cancer cell lines (A) TSU-Pr1, (B) MCF7, (C) PC3, and (D) DU145. Cultures were untreated or treated with 2, 10 or 50 μM dysidiolide for 24 hr. All cultures received a final DMSO concentration of 0.25%. Cells were harvested by trypsinization and viability was determined by Trypan blue exclusion.\nFACS analysis of (A) TSU-Pr1, (B) PC3, (C) DU145, and (D) MCF7, untreated or treated with 2, 10 or 50 μM dysidiolide for 24 hr. All cultures received a final DMSO concentration of 0.25%.\nas §5\nas §4, with “These cell cycle changes are consistent with arrest prior to completion of the replicative (S) phase, or with cell death occurring preferentially in cells with a 4n DNA content (G2/M population).” left out"}},
  "note": "“Also recorded” adds a separate entry of the source.",
  "data": [
    {"compound": "C=C(C)CCC[C@@]1(C)CCC[C@H]2C1=CC[C@H](C)[C@]2(C)C[C@H](O)C1=CC(=O)O[C@@H]1O", "note": "(racemic) [dysidiolide]", "values": [
      {"measurement": "Cdc2 protein kinase activity", "setting": "Cdc2", "value": "inhibition"},
      {"measurement": "Cdk4 protein kinase activity", "setting": "Cdk4", "value": "inhibition"},
      {"measurement": "Cdk2 protein kinase activity", "setting": "Cdk2; 50 μM, 24 hr", "value": "inhibition"},
      {"measurement": "Cdk2 activity", "setting": "Cdk2; 2 or 10 μM, 2 or 4 hr", "value": "no significant changes"},
      {"measurement": "animal weight (indication of overall toxicity)", "setting": "MX1 tumor xenografts", "value": "higher than 90 % of controls"},
      {"measurement": "tumor growth inhibition", "setting": "MX1 tumor xenografts", "value": 70, "unit": "%"},
      {"measurement": "cell cycle distribution", "setting": "[1]; MCF7 breast cancer cell line", "value": "loss of the G2/M peak and accumulation of cells in G1"},
      {"measurement": "cell cycle distribution", "setting": "[1]; PC3, DU145 and MCF7 cells at higher doses of drug, 24 hr", "value": "loss of a G2/M (4 n peak)"},
      {"measurement": "apoptosis", "setting": "[2]", "value": "massive apoptosis; also recorded: induced apoptotic cell death"},
      {"measurement": "levels of p21, p27, cyclin D1 and cyclin E", "setting": "[3]", "value": "reduced levels"},
      {"measurement": "levels of Cdc25 C", "setting": "Cdc25 C; 50 μM, 24 hr", "value": "reduced"},
      {"measurement": "levels of Cdc25 C", "setting": "Cdc25 C; 2 or 10 μM, 2 or 4 hr", "value": "decrease"},
      {"measurement": "cell cycle arrest", "setting": "TSU-Pr1 cells", "value": "induces G1 arrest"},
      {"measurement": "cytotoxicity (loss of Trypan blue exclusion, sub-G1 fraction)", "setting": "[4]; 2, 10 and 50 μM, 24 hr", "value": "cytotoxic"},
      {"measurement": "growth arrest", "setting": "[4]; 2-50 μM, within 24 hours, four human cancer cell lines", "value": "growth arrest"}
    ]}
  ]
}
